Measured values published in ChEMBL document CHEMBL1123168 (J Med Chem, 1986).

Legend:
Canis familiaris [1] = assay: Cardiotonic activity by increasing heart rate (HR) in phenobarbital-anesthetized dogs after intravenous administration; format: functional, Canis lupus familiaris
Canis familiaris [2] = assay: Cardiotonic activity in increasing contractility in phenobarbital-anesthetized dogs after intravenous administration; format: functional; conditions: Canis lupus familiaris
Canis familiaris [3] = assay: Cardiotonic activity by decreasing mean arterial blood pressure(MAP) in phenobarbital-anesthetized dogs after intravenous administration; format: functional, Canis lupus familiaris, Artery
Phosphodiesterase 3 = Phosphodiesterase 3 (Homo sapiens, UniProt Q14432+Q13370); assay: Cardiotonic effect by inhibition of cAMP phosphodiesterase (PDE III); format: protein assay, Canis lupus familiaris

SMILES | IC50 (Phosphodiesterase 3) [µM] | Heart rate (Canis familiaris [1]) [beats min-1] | ED50 (Canis familiaris [2]) [mg/kg] | MAP (Canis familiaris [3]) [mmHg]
Nc1cc(-c2ccncc2)c[nH]c1=O [INAMRINONE] |  | 13 | 1.89 | 16
Cc1[nH]c(=O)c(C#N)cc1-c1ccncc1 [MILRINONE] |  | 14 | 0.037 | 10

Second part, led by results:

IC50 (Phosphodiesterase 3) [µM] | SMILES | Heart rate (Canis familiaris [1]) [beats min-1] | ED50 (Canis familiaris [2]) [mg/kg] | MAP (Canis familiaris [3]) [mmHg]
38 | CCCc1nc(O)c(C#N)cc1-c1ccncc1 | 25 | 0.748 | 20
31 | Cc1nc(O)c(N)cc1-c1ccncc1 | 9 | 0.055 | 10
12 | CCc1nc(O)c(C#N)cc1-c1ccncc1 | 19 | 0.12 | 12
